Data: PMC6952197, “Harvesting of Prebiotic Fructooligosaccharides by Nonbeneficial Human Gut Bacteria” (mSphere, 2020)

T1: Dorea PTS_EIIBCA (I9 PTS_EIIBCA) (uncultured bacterium, UniProt S6CP27)
T1 construct: full-length single multidomain protein (domains B, C, A; ten predicted transmembrane helices)
T1 sequence (S6CP27 1-643): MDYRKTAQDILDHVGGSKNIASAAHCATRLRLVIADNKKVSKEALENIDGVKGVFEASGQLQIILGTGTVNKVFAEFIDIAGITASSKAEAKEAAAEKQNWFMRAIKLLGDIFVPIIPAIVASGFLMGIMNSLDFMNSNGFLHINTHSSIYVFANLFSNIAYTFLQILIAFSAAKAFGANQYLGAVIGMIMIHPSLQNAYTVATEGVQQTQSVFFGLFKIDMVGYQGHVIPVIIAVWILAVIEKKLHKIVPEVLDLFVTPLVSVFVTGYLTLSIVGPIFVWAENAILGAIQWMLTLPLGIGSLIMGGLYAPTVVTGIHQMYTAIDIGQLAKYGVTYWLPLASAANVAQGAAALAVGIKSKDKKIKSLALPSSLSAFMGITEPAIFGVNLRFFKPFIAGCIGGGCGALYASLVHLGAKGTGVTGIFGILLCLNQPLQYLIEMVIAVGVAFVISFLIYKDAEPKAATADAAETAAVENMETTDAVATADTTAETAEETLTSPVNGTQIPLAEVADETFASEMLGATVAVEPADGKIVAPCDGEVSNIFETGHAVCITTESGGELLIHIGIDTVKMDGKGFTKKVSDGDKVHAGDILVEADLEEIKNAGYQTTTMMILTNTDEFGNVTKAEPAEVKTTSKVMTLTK

B1: Dorea PTS_EIIBCA (I9 PTS_EIIBCA) (uncultured bacterium) (protein)
chain: T1 sequence (S6CP27 1-643)
notes: full-length single multidomain protein (domains B, C, A; ten predicted transmembrane helices)

What was measured:
[1] = target: T1, Dorea PTS_EIIBCA (I9 PTS_EIIBCA); assay: binding saturation on washed crude membranes; unbound kestose by HPAEC-PAD
[2] = substrate: OC[C@H]1O[C@@](CO)(OC[C@@]2(O[C@H]3O[C@H](CO)[C@@H](O)[C@H](O)[C@H]3O)O[C@H](CO)[C@@H](O)[C@@H]2O)[C@@H](O)[C@@H]1O; assay: uptake saturation in intact E. coli cells; residual kestose by HPAEC-PAD; assay type: cell-based, uncultured bacterium; settings: I9min_PTS cells (E. coli EPI100, host EI and HPr/FPr complement), TBS pH 7.0, 37°C, transport
Description: uptake saturation in intact E. coli cells; residual kestose by HPAEC-PAD on Dorea PTS_EIIBCA (I9 PTS_EIIBCA) | The affinity constants of kestose uptake by I9min_PTS cells (Km)

Molecule | Kd [1] | Km [2]
OC[C@H]1O[C@@](CO)(OC[C@@]2(O[C@H]3O[C@H](CO)[C@@H](O)[C@H](O)[C@H]3O)O[C@H](CO)[C@@H](O)[C@@H]2O)[C@@H](O)[C@@H]1O [kestose] | 51 ± 12 µM | –
B1 | – | 266 ± 165 µM
